Data on one molecule can be found in PMC9745799, “Polymyxin Stereochemistry and Its Role in Antibacterial Activity and Outer Membrane Disruption” (ACS Infectious Diseases, 2022).

Positions of bridges follow the written chain, without caps; N, C: chain ends. Non-standard residues stand in square brackets, D forms with d. Residues, ends and D or L forms follow the SMILES beside them. *: point of attachment. dDab = NCC[C@@H](N)C(=O)O; Heptanoyl = CCCCCCC(=O)*

Common to all, as to test: NPN uptake assay (outer membrane disruption)
What all share (type): cell-based

Test [1] deals with E. coli BW25113 (rough LPS). The note with it: NPN fluorescence after 1 h at RT, 5 mM HEPES pH 7.2 + 20 mM glucose, triplicates, result in words. The protocol:
(§1) Bacteria were taken from glycerol stocks and grown in TSB overnight. Cultures were diluted either 50 or 100 times in Lysogeny Broth (LB) and grown at 37 °C to an OD600 of 0.5. Test compounds were prepared in HEPES buffer (5 mM, pH 7.2 + 20 mM glucose) and serially diluted (25 μL per well) on 1/2 the area of black 96-well plates with a transparent bottom. N-Phenyl-1-naphthylamine (NPN) was dissolved in acetone (0.5 mM) and diluted to 40 μM in HEPES buffer (5 mM, pH 7.2 + 20 mM glucose). 25 μL of the NPN solution was added to each well. The bacterial suspension was spin down (1000g, 10 min), and the remaining cell pellet was resuspended in half the original volume of HEPES buffer (5 mM, pH 7.2 + 20 mM glucose). 50 μL of bacterial suspension was added to each well. NPN fluorescence was measured after 1 h of incubation at RT with λex 355 ± 20 nm and λem 420 ± 20 nm. The measured fluorescence signal was corrected for NPN fluorescence in the absence of compounds (bacteria in buffer + NPN) and presented as relative fluorescence units (RFUs).

The test system of test [2] is E. coli ATCC 25922 (smooth LPS). The note with it: NPN fluorescence after 1 h at RT, 5 mM HEPES pH 7.2 + 20 mM glucose, triplicates, result in words. As to the method:
as §1

The subject of test [3] is polymyxin-resistant, mcr-1 positive E. coli. The note with it: E. coli mcr-1 positive; NPN fluorescence after 1 h at RT, highest concentration tested 32 μg/mL, triplicates; result in words. The protocol:
as §1

As for `CCCCCCC(=O)N[C@H](CCN)C(=O)N[C@@H](C(=O)N[C@H](CCN)C(=O)N[C@@H]1CCNC(=O)[C@@H]([C@H](C)O)NC(=O)[C@@H](CCN)NC(=O)[C@@H](CCN)NC(=O)[C@@H](CC(C)C)NC(=O)[C@H](Cc2ccccc2)NC(=O)[C@@H](CCN)NC1=O)[C@H](C)O` [ent-PmxB4] (Heptanoyl-[dDab][dT][dDab][dDab][dDab]F[dL][dDab][dDab][dT]; lactam 4-C), the results for the “OM disruption (NPN uptake)” value in test [1], in test [2] and in test [3] were “moderate OM disruption”, “moderate OM disruption” and “full NPN uptake albeit at higher concentrations”, respectively.
